Laboratory results from patent US11318138B2, “Methods for treating B cell proliferative disorders” (priority 2013, dated 2022).

How the values were obtained:
[1] = test system: PIK3IP1 mRNA in MAVER-1 cells; assay: q-RT-PCR analysis of PIK3IP1 mRNA expression in MCL cells; assay type: cell-based; conditions: MAVER-1, PD (30 h) alone or Ibrutinib (24 h) alone
[2] = test system: MINO cells; assay: MCL cell line culture with Ibrutinib and/or PD 0332991: viability, cell cycle, apoptosis, live cells; assay type: cell-based
[3] = test system: PIK3IP1 mRNA in JEKO-1 cells; assay: q-RT-PCR analysis of PIK3IP1 mRNA expression in MCL cells; assay type: cell-based; conditions: JEKO-1, PD (30 h) alone or Ibrutinib (24 h) alone
[4] = test system: CCL3, CCL4, TNF and IL10 expression in MCL cells; conditions: MCL cells ex vivo; cited from earlier work
[5] = test system: SP53 cells; conditions: SP53, Ibrutinib 72 h, at the G1-S transition
[6] = test system: chicken lymphoma DL40 cell line; conditions: model chicken lymphoma DL40 cell line; cited from earlier work
[7] = test system: MAVER-1 cells; assay: MCL cell line culture with Ibrutinib and/or PD 0332991: viability, cell cycle, apoptosis, live cells; assay type: cell-based; conditions: MAVER-1, Ibrutinib 72 h, Trypan blue exclusion and ToPro-3 FACS
[8] = test system: JEKO-1 cells; assay: as above; assay type: cell-based; conditions: JEKO-1, Ibrutinib 72 h, Trypan blue exclusion and ToPro-3 FACS
[9] = test system: MCL patient (Pt 7); conditions: Pt 7, Ibrutinib 560 mg daily
[10] = test system: recurrent MCL patients; conditions: cited from earlier work

Compound | PIK3IP1 mRNA induction, single agent [1] | toxicity to cells ([2]; Ibrutinib 72 h) | S phase entry (BrdU pulsing/PI analysis) ([2]; Ibrutinib 72 h (1 μM)) | PIK3IP1 mRNA induction, single agent [3] | expression of CCL3, CCL4, TNF and IL10 [4] | apoptosis (accumulation of sub 2N cells, reduction of S phase cells) [5] | effect of C481S BTK mutation on ibrutinib sensitivity [6] | sensitivity of cells to ibrutinib (viability, DNA fragmentation) [7] | sensitivity of cells to ibrutinib (viability, DNA fragmentation) [8] | duration of response before progression [9] [months] | cell cycle effect in patients [10] | clinical response [10]
C=CC(=O)N1CCC[C@@H](n2nc(-c3ccc(Oc4ccccc4)cc3)c3c(N)ncnc32)C1 [Ibrutinib, (R)-1-(3-(4-amino-3-(4-phenoxyphenyl)-1H-pyrazolo[3,4-d]pyrimidin-1-yl)piperidin-1-yl)prop-2-en-1-one] | modestly induced | not toxic | moderately inhibiting | modestly induced | suppress | potently induced apoptosis | conferred resistance | completely refractory | completely refractory | 14 |  | 
CC(=O)c1c(C)c2cnc(Nc3ccc(N4CCNCC4)cn3)nc2n(C2CCCC2)c1=O [PD 0332991] | modestly induced |  |  | modestly induced |  |  |  |  |  |  | prolonged early G1 arrest | durable clinical response
